The values below come from ChEMBL document CHEMBL1126802, “Structure-affinity relationship studies on 5-HT1A receptor ligands. 1. Heterobicyclic phenylpiperazines with N4-alkyl substituents” (J Med Chem, 1993).

The structures appear in SMILES notation.

The target of data set [1] is T1, 5-hydroxytryptamine receptor 1A (Rattus norvegicus, UniProt P19327).
T1 sequence (P19327 whole entry): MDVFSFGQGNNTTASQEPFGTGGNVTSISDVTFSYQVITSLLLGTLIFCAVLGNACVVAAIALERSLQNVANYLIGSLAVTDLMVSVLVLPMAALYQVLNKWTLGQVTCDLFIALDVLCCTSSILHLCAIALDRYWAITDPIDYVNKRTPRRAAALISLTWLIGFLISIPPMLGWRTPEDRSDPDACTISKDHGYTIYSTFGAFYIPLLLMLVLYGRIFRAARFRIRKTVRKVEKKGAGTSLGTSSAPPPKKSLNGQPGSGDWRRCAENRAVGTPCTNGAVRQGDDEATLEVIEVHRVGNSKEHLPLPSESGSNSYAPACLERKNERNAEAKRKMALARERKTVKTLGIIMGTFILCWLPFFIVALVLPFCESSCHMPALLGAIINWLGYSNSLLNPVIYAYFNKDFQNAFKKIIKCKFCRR
The experiment in a line: Displacement of radioligand [3H]2-(di-N-propylamino)-8-hydroxytetralin from 5-hydroxytryptamine 1A receptor in rat frontal cortex homogenate. It is filed as tissue-based.

The nature of data set [2]: Ionization at 30 degree C. It is filed as ADME.
The nature of data set [3]: Ionization at 45 degree C. It is filed as ADME.
Data set [4] can be described thus: Ionization at 37 degree C. The format is ADME.
Data set [5] can be described thus: Ionization at 25 degree C. It is filed as ADME.
A short description of data set [6]: Ionization at 20 degree C. It is filed as ADME.
For data set [7], the target named is T1, 5-hydroxytryptamine receptor 1A. The experiment in a line: Displacement of radioligand [3H]2-(di-N-propylamino)-8-hydroxytetralin from 5-hydroxytryptamine 1A receptor in rat frontal cortex homogenate (experiment 1). The format is tissue-based.
Data set [8] addresses T2, Opioid receptor (Mus musculus, UniProt P42866+P32300+P33534). The experiment in a line: Tested for displacement of radioligand [3H]-Naloxone from opiate receptor. The format is protein assay.
The target in data set [9] is T2, Opioid receptor. The experiment in a line: Tested for displacement of radioligand [3H]-Naloxone from opiate receptor; value ranges from 7-10 uM. The format is protein assay.

Take `CCCCCCCCCCN1CCN(c2cccc3ccoc23)CC1`: affinity in data set [1] was put at a Ki of 8 nM.

In the case of `CCCCCN1CCN(c2cccc3c2OCCO3)CC1`, the pKa (as a rule, the pH at which an ionisable group is half protonated) in data set [2] was determined as 8.21; in data set [3], 7.91; in data set [4] it was 8.06; in data set [5], 8.27; in data set [6], 8.41. Moreover, the Ki (as a rule, a measure of affinity in units of concentration, obtained from inhibition or displacement) in [1] was found to be 2.2 nM.

For the compound `CCCN1CCN(c2cccc3ccoc23)CC1`, in [4], the pKa turned out to be 7.84. The compound also returned a Ki in data set [1] of 29 nM.

The compound `CC(C)N1CCN(c2cccc3ccoc23)CC1` registered a Ki in data set [1] of 56 nM.

`CCCCCN1CCN(c2cccc3ccoc23)CC1` had a pKa in data set [4] greater than 7.7. This compound also displayed a Ki in data set [1] of 0.81 nM.

Consider `CCN1CCN(c2cccc3c2OCCO3)CC1`, for which the pKa in [4] stood at 8; in data set [6], 8.34.

`CCCCCCCCN1CCN(c2cccc3ccoc23)CC1` returned a Ki in [1] of 1.7 nM.

On to `CCCCCN1CCN(c2cccc(Cl)c2)CC1`, for which the pKa in data set [2] is greater than 7.5; in data set [3] it was greater than 7; in data set [4] it was greater than 7.2; in data set [5], greater than 7.4; in [6] it was greater than 7.4. The affinity in [7], expressed as Ki, was 7.8 nM.

In data set [1], `CCCCCCN1CCN(c2cccc3c2OCCO3)CC1` registered a Ki of 0.5 nM.

Turning to `CCCCCCN1CCN(c2cccc3ccoc23)CC1`, the affinity in [1], expressed as Ki, was 0.54 nM.

Consider `CCCN1CCN(c2cccc3c2OCCO3)CC1`, for which the pKa was determined as 8.02 in data set [4] and 8.36 in [6]. Further, the Ki in [1] is 80 nM.

Take `c1cc(N2CCN(CC3CCCCC3)CC2)c2occc2c1`: in data set [1], affinity was put at a Ki of 7.7 nM.

As to `CN1CCN(c2cccc3c2OCCO3)CC1`, the pKa came out at 7.77 in data set [4] and 8.07 in [6]. Besides, affinity in [1] was put at a Ki of 24 nM.

`CCCCN1CCN(c2cccc3ccoc23)CC1` returned a pKa in data set [4] of 7.77. The compound further displayed a Ki in [1] of 5.9 nM.

In data set [1], `c1cc(N2CCN(C3CCCCC3)CC2)c2occc2c1` showed a Ki of 64 nM.

In data set [1], `c1cc2c(c(N3CCN(CCC4CCCCC4)CC3)c1)OCCO2` returned a Ki of 0.25 nM.

In [1], `c1cc2c(c(N3CCN(CC4CCCCC4)CC3)c1)OCCO2` showed a Ki of 11 nM.

As to `CCCCN1CCN(c2cccc3c2OCCO3)CC1`, the values for the pKa in data set [4] and in data set [6] were 8.06 and 8.41, respectively. For the same compound, the affinity in data set [1], expressed as Ki, was 12 nM.

In data set [1], `CCCCCCCCN1CCN(c2cccc3c2OCCO3)CC1` had a Ki of 0.61 nM.

Consider `CCOC(=O)C1(c2ccccc2)CCN(CC)CC1`, for which, at Opioid receptor [8], the IC50 (as a rule, the point on the concentration scale where inhibition reaches its midpoint) came out at 5000 nM.

In the case of `CN1CCN(c2cccc3ccoc23)CC1`, the pKa in data set [4] worked out at 7.54. Moreover, the Ki in [1] turned out to be 8.1 nM.

Regarding `CCCCCCCCCN1CCC(C(=O)OCC)(c2ccccc2)CC1`, the 50% inhibitory concentration (IC50) at Opioid receptor [8] was 150 nM.

In the case of `CCCCCCCN1CCC(C(=O)OCC)(c2ccccc2)CC1`, the IC50 on Opioid receptor [8] amounted to 55 nM.

Compound `CCN1CCN(c2cccc3ccoc23)CC1` came in with a pKa in data set [4] of 7.79. This compound also registered a Ki in [1] of 23 nM.

Consider `CCCCN1CCC(C(=O)CC)(c2cccc(O)c2)CC1`, for which the IC50 at Opioid receptor [8] is 50000 nM.

The compound `c1cc(N2CCN(CC3CC3)CC2)c2occc2c1` returned a Ki in data set [1] of 20 nM.

Take `CCCCCCN1CCC(C(=O)CC)(c2cccc(O)c2)CC1`: the IC50 on Opioid receptor [8] worked out at 20000 nM.

`CCCCCCCCN1CCC(C(=O)OCC)(c2ccccc2)CC1` returned an IC50 on Opioid receptor [8] of 30 nM.

As for `c1cc(N2CCNCC2)c2occc2c1`, the pKa in data set [4] came to 8.44; in [6] it was 8.84. In data set [1], this compound returned a Ki of 13 nM.

`CCCN1CCC(C(=O)OCC)(c2ccccc2)CC1` yielded an IC50 on Opioid receptor [8] of 4000 nM.

As to `CCCCCCCCCCN1CCC(C(=O)CC)(c2cccc(O)c2)CC1`, the IC50 on Opioid receptor [8] stood at 500000 nM.

In turn, `CCCCN1CCC(C(=O)OCC)(c2ccccc2)CC1` gave an IC50 at Opioid receptor [8] of 900 nM.

In turn, `CCCCCCCCN1CCC(C(=O)CC)(c2cccc(O)c2)CC1` displayed an IC50 on Opioid receptor [8] of 200000 nM.

At Opioid receptor [8], `CCCCCCCCCN1CCC(C(=O)CC)(c2cccc(O)c2)CC1` showed an IC50 of 700000 nM.

As to `CCCCCN1CCC(C(=O)OCC)(c2ccccc2)CC1`, the IC50 at Opioid receptor [8] is 400 nM.

`CCCCCCCN1CCC(C(=O)CC)(c2cccc(O)c2)CC1` registered an IC50 at Opioid receptor [8] of 20000 nM.

In turn, `CCCCCCN1CCC(C(=O)OCC)(c2ccccc2)CC1` had an IC50 on Opioid receptor [8] of 200 nM.

The compound `CCCN1CCC(C(=O)CC)(c2cccc(O)c2)CC1` had an IC50 on Opioid receptor [8] of 200000 nM.

`CCC(=O)C1(c2cccc(O)c2)CCN(CC)CC1` displayed an IC50 at Opioid receptor [8] of 400000 nM.

For the compound `CCCCCCCCCCN1CCN(c2cccc3c2OCCO3)CC1`, in data set [1], the affinity corresponds to a Ki of 1 nM.

In the case of `CCCCCN1CCC(C(=O)CC)(c2cccc(O)c2)CC1`, on Opioid receptor [8], the IC50 is 8000 nM.

`CC(C)CN1CCN(c2cccc3ccoc23)CC1` came in with a Ki in data set [1] of 64 nM.

Regarding `COc1ccccc1N1CCNCC1`, in [1], the affinity corresponds to a Ki of 170 nM.

In the case of `Clc1cccc(N2CCNCC2)c1` [CHLOROPHENYLPIPERAZINE], the pKa in [2] amounted to 8.46; in data set [3], 8.12; in data set [4], 8.36; in [5], 8.6; in data set [6] it was 8.72. Moreover, in data set [7], the Ki is 200 nM.

As to `c1cc2c(c(N3CCNCC3)c1)OCCO2` [ELTOPRAZINE], the pKa in [2] stood at 8.88; in [3], 8.55; in data set [4] it was 8.74; in data set [5], 8.99; in data set [6] it was 9.18.

Consider `O=C1c2ccccc2S(=O)(=O)N1CCCCN1CCN(c2ncccn2)CC1` [IPSAPIRONE], for which, in data set [1], the Ki was 5.5 nM.

`CCC(=O)C1(c2cccc(O)c2)CCN(C)CC1` [KETOBEMIDONE] registered an IC50 on Opioid receptor [9] of 7000 nM.
